Source: publication PMC11938010, “Positive Charge in an Antimalarial Compound Unlocks Broad-Spectrum Antibacterial Activity” (JACS Au, 2025)
Values after ≈ are worked out from the molar mass of the structure shown. Like-named read-outs stand apart in the source and are kept apart here.

Experiments:
[1] = tested on: Plasmodium falciparum NF54; assay: P. falciparum in vitro drug sensitivity assay on asexual blood stage parasites ([3H]-hypoxanthine incorporation); assay type: cell-based; details: read-out: PfNF54 IC50
Escherichia coli ∆tolC = assay: microbe, parasite or virus in culture; assay type: cell-based; details: Escherichia coli
E. coli K12 = assay: In vitro antibacterial activity (growth inhibition, OD600), E. coli wild-type; assay type: cell-based; details: Escherichia coli
Acinetobacter baumannii = assay: In vitro antibacterial activity (growth inhibition, OD600), A. baumannii; assay type: cell-based; details: for MIC: read-out: Ab MIC95
[2] = tested on: Pseudomonas aeruginosa PA14; assay: In vitro antibacterial activity (growth inhibition, OD600), P. aeruginosa; assay type: cell-based
[3] = tested on: Streptococcus pneumoniae (DSM20566); assay: In vitro antibacterial activity (MIC), S. pneumoniae; assay type: cell-based; details: Streptococcus pneumoniae, DSM20566, read-out: Sp MIC95
[4] = tested on: Staphylococcus aureus ssp. Aureus; assay: In vitro antibacterial activity (MIC), S. aureus; assay type: cell-based; details: Staphylococcus aureus, read-out: Sa MIC95
[5] = tested on: Mycobacterium tuberculosis (Mtb) strain H37Rv; assay: microbe, parasite or virus in culture; assay type: cell-based; details: 168 h, 7 days, footnote b: not active at maximum solubility, read-out: MtbH37Rv MIC90
in vitro = details: human, HepG2 CC50, 48 h, MTT
[6] = Plasmodium falciparum, NF54, Table 1 and main text
[7] = K12, read-out: EcK12 inh. at 50 μM, 50 μM compound, Table 1 and main text
[8] = 50 μM compound, Table 1 and main text, read-out: Ab inh. at 50 μM
[9] = PA14, 50 μM compound, Table 1 and main text, read-out: PA14 inh. at 50 μM
[10] = Table S2, with standard deviation
[11] = 50 µM, Table S1, with standard deviation, read-out: Ab inh. at 50 µM (%)
[12] = K12, 50 μM compound, Table 1 and main text, read-out: EcK12 inh. at 50 μM
[13] = PA14, 50 µM, Table S1, with standard deviation, read-out: PA14 inh. at 50 µM (%)

SMILES	IC50 [1, 6] [nM]	MIC (Escherichia coli ∆tolC; read-out: EcΔtolC MIC95) [µM]	MIC (Escherichia coli ∆tolC; read-out: Ec∆tolC MIC95 (µM)) [µM]	inhibition at 50 µM (E. coli K12; [7]) [%]	inhibition at 50 µM (Acinetobacter baumannii; [8]) [%]	inhibition at 50 µM [2, 9] [%]	MIC ([3]; Table 1 and main text) [µM]	MIC [3, 10] [µM]	MIC ([4]; Table 1 and main text) [µM]	MIC [4, 10] [µM]	MIC90 [5] [µM]	CC50 (in vitro) [nM]	inhibition at 50 µM (E. coli K12; [12]) [%]	also measured
N=C(N)NCc1cccc(NC(=O)c2cc(-c3cc(Cl)ccc3O)[nH]n2)c1 [Compound 7G]	210	13 (≈ 5 µg/mL)	13 ± 3 (≈ 5 µg/mL)	≥ 45	24	56	49 (≈ 18.9 µg/mL)	49 (≈ 18.9 µg/mL)	22 (≈ 8.47 µg/mL)	22 ± 2 (≈ 8.47 µg/mL)	64 (≈ 24.6 µg/mL)	> 50000	–	–
N=C(N)N1CCN(c2ccc(NC(=O)c3cc(-c4cc(Cl)ccc4O)[nH]n3)cc2)CC1 [Compound 6G]	440	9 (≈ 3.96 µg/mL)	9 ± 3 (≈ 3.96 µg/mL)	≥ 45	32	55	25 (≈ 11 µg/mL)	25 ± 2 (≈ 11 µg/mL)	26 (≈ 11.4 µg/mL)	26 ± 2 (≈ 11.4 µg/mL)	64 (≈ 28.2 µg/mL)	> 50000	–	–
O=C(Nc1ccc(CNC2=NCCN2)c(C(F)(F)F)c1)c1cc(-c2cc(Cl)ccc2O)[nH]n1 [Compound 10C, 5-(5-Chloro-2-hydroxyphenyl)-N-(4-(((4,5-dihydro-1H-imidazol-2-yl)amino)methyl)-3-(trifluoromethyl)phenyl)-1H-pyrazole-3-carboxamide]	404	5.5 (≈ 2.63 µg/mL)	5.5 ± 0.8 (≈ 2.63 µg/mL)	77	47	29	14 (≈ 6.7 µg/mL)	14 ± 2 (≈ 6.7 µg/mL)	8 (≈ 3.83 µg/mL)	8 ± 2 (≈ 3.83 µg/mL)	16 (≈ 7.66 µg/mL)	> 50000	–	inhibition at 50 µM (Acinetobacter baumannii; [11]): 49.6 ± 0.9%
O=C(Nc1ccc(CN2CCNCC2)cc1)c1cc(-c2cc(Cl)ccc2O)[nH]n1 [Compound 4A]	270	40 (≈ 16.5 µg/mL)	40 ± 8 (≈ 16.5 µg/mL)	–	24	62	40 (≈ 16.5 µg/mL)	40 ± 7 (≈ 16.5 µg/mL)	> 50	> 50	64 (≈ 26.4 µg/mL)	13000	34	inhibition at 50 µM (Acinetobacter baumannii; [11]): 24.2 ± 7.7%
O=C(Nc1cc(N2CCNCC2)cc(C(F)(F)F)c1)c1cc(-c2cc(Cl)ccc2O)[nH]n1 [Compound 11A]	≤ 60	7 (≈ 3.26 µg/mL)	7 ± 2 (≈ 3.26 µg/mL)	–	–	< 10	5 (≈ 2.33 µg/mL)	5 ± 1 (≈ 2.33 µg/mL)	6 (≈ 2.8 µg/mL)	6 ± 2 (≈ 2.8 µg/mL)	32 (≈ 14.9 µg/mL)	9000	72	IC50 ([1]; Table 1 and main text): 50 nM; MIC (Acinetobacter baumannii; Table S1, printed inside the inhibition column, with standard deviation, unit from Table 1 footnote): 22 ± 3 µM (≈ 10.2 µg/mL); MIC (Acinetobacter baumannii; printed inside the Ab inhibition column, Table 1 and main text): 22 µM (≈ 10.2 µg/mL)
CC(C)(C)OC(=O)N1CCN=C1NCc1ccc(NC(=O)c2cc(-c3cc(Cl)ccc3O)[nH]n2)cc1C(F)(F)F [Compound 10D, tert-Butyl 2-((4-(5-(5-chloro-2-hydroxyphenyl)-1H-pyrazole-3-carboxamido)-2-(trifluoromethyl)benzyl)amino)-4,5-dihydro-1H-imidazole-1-carboxylate]	140	18 (≈ 10.4 µg/mL)	18 ± 6 (≈ 10.4 µg/mL)	–	< 10	< 10	> 50	> 50	11.6 (≈ 6.72 µg/mL)	11.6 ± 0.2 (≈ 6.72 µg/mL)	16 (≈ 9.26 µg/mL)	11000	17	–
NCc1ccc(NC(=O)c2cc(-c3cc(Cl)ccc3O)[nH]n2)cc1C(F)(F)F [Compound 10A]	150	22.9 (≈ 9.41 µg/mL)	22.9 ± 0.1 (≈ 9.41 µg/mL)	–	86	< 10	23 (≈ 9.45 µg/mL)	23 ± 3 (≈ 9.45 µg/mL)	29 (≈ 11.9 µg/mL)	29 ± 3 (≈ 11.9 µg/mL)	64 (≈ 26.3 µg/mL)	13000	61	–
O=C(Nc1cccc(CNC2=NCCN2)c1)c1cc(-c2cc(Cl)ccc2O)[nH]n1 [Compound 7C]	390	13 (≈ 5.34 µg/mL)	13 ± 3 (≈ 5.34 µg/mL)	–	33	41	48.2 (≈ 19.8 µg/mL)	48.2 ± 0.8 (≈ 19.8 µg/mL)	22.3 (≈ 9.16 µg/mL)	22.3 ± 0.6 (≈ 9.16 µg/mL)	32 (≈ 13.1 µg/mL)	> 50000	29	inhibition at 50 µM (E. coli K12; K12, 50 µM, Table S1, with standard deviation, read-out: EcK12 inh. at 50 µM (%)): 29.4 ± 0.6%
O=C(Nc1ccc(C(F)(F)F)c(N2CCNCC2)c1)c1cc(-c2cc(Cl)ccc2O)[nH]n1 [Compound 13A, 5-(5-Chloro-2-hydroxyphenyl)-N-(3-(piperazin-1-yl)-4-(trifluoromethyl)phenyl)-1H-pyrazole-3-carboxamide]	160	> 50	–	–	–	–	29 (≈ 13.5 µg/mL)	29 ± 2 (≈ 13.5 µg/mL)	> 50	> 50	32 (≈ 14.9 µg/mL)	8000	–	inhibition at 50 µM (Escherichia coli ∆tolC; read-out: Ec∆tolC inh. at 50 µM (%)): 46 ± 5%; inhibition at 50 µM (Acinetobacter baumannii; [11]): < 10%; inhibition at 50 µM [2, 13]: < 10%
N=C(N)NCc1cc(NC(=O)c2cc(-c3cc(Cl)ccc3O)[nH]n2)cc(C(F)(F)F)c1 [Compound 9G]	78	5 (≈ 2.26 µg/mL)	5 ± 2 (≈ 2.26 µg/mL)	–	59	50	> 50	> 50	8 (≈ 3.62 µg/mL)	8 ± 3 (≈ 3.62 µg/mL)	32 (≈ 14.5 µg/mL)	> 50000	–	MIC (E. coli K12; K12, Table S1, printed inside the inhibition column, with standard deviation, unit from Table 1 footnote, read-out: EcK12 MIC95): 46 ± 2 µM (≈ 20.8 µg/mL)
O=C(Nc1ccc(CNC2=NCCN2)cc1)c1cc(-c2cc(Cl)ccc2O)[nH]n1 [Compound 8C]	670	21.5 (≈ 8.83 µg/mL)	21.5 (≈ 8.83 µg/mL)	–	12	10	> 50	> 50	49 (≈ 20.1 µg/mL)	49 ± 1 (≈ 20.1 µg/mL)	> 64	> 50000	< 10	–
N=C(N)NCc1ccc(NC(=O)c2cc(-c3cc(Cl)ccc3O)[nH]n2)cc1 [Compound 8G, 5-(5-Chloro-2-hydroxyphenyl)-N-(4-(guanidinomethyl)phenyl)-1H-pyrazole-3-carboxamide]	420	47.5 (≈ 18.3 µg/mL)	47.5 (≈ 18.3 µg/mL)	–	19.9	41	> 50	> 50	22 (≈ 8.47 µg/mL)	22 ± 1 (≈ 8.47 µg/mL)	> 64	> 50000	29	–
CC(C)(C)OC(=O)N1CCN=C1NCc1cccc(NC(=O)c2cc(-c3cc(Cl)ccc3O)[nH]n2)c1 [Compound 7D]	360	14 (≈ 7.15 µg/mL)	14 ± 4 (≈ 7.15 µg/mL)	≥ 45	–	≥ 45	31 (≈ 15.8 µg/mL)	31 ± 11 (≈ 15.8 µg/mL)	24 (≈ 12.3 µg/mL)	24 (≈ 12.3 µg/mL)	64 (≈ 32.7 µg/mL)	19000	–	inhibition at 50 µM [2, 13]: 54.8 ± 0.8%
